# Results reported in ChEMBL document CHEMBL1201862, “PubChem BioAssay data set” (2004).
#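 Step 1: Grow cells in 96-well plates. Step 2: Expose to compound for 48 hours at 5 concentrations. Step 3: Interpolate endpoints linearly; if unreached, use highest concentration. The concentration for 50% growth inhibition is given as GI50.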 Activity calls are given as the source filed them. No stated cut-off is given here; in the data, active = GI50 up to about 1.1 µM and inactive = higher.
# What was measured:
# Experiment in all cases: NCI tumour cell line growth inhibition, 48 h
# [1] = test system: A498
# [2] = test system: TK-10
# [3] = test system: Malme-3M
# [4] = test system: RPMI-8226
# [5] = test system: SN12C
# [6] = test system: HL-60
# [7] = test system: NCI-H522
# [8] = test system: SNB-75
# [9] = test system: UO-31
# [10] = test system: A549
# [11] = test system: MOLT-4
# [12] = test system: OVCAR-8
# [13] = test system: NCI-H23
# [14] = test system: OVCAR-5
# [15] = test system: ACHN
# [16] = test system: HCC 2998
# [17] = test system: LOX IMVI
# [18] = test system: SK-MEL-2
# [19] = test system: COLO 205
# [20] = test system: EKVX
SMILES,GI50 [1],GI50 [2],GI50 [3],GI50 [4],GI50 [5],GI50 [6],GI50 [7],GI50 [8],GI50 [9],GI50 [10],GI50 [11],GI50 [12],GI50 [13],GI50 [14],GI50 [15],GI50 [16],GI50 [17],GI50 [18],GI50 [19],GI50 [20]
CCN1c2ccccc2-c2c3c1cc(C)cc3c1ccccc1[n+]2CC,3.26 µM (inactive),2.56 µM (inactive),1.15 µM (inactive),0.466 µM (active),0.659 µM (active),1.16 µM (inactive),1.26 µM (inactive),0.798 µM (active),7.13 µM (inactive),2.4 µM (inactive),1.04 µM (active),0.427 µM (active),1.32 µM (inactive),1.5 µM (inactive),2.16 µM (inactive),0.811 µM (active),0.386 µM (active),1.21 µM (inactive),–,–
OC1(C(O)(c2ccc(-c3ccccc3)cc2)c2ccc(-c3ccccc3)cc2)CCCCC1,> 100 µM (inactive),> 100 µM (inactive),–,> 100 µM (inactive),> 100 µM (inactive),> 100 µM (inactive),> 100 µM (inactive),> 100 µM (inactive),> 100 µM (inactive),81.5 µM (inactive),23.9 µM (inactive),> 100 µM (inactive),> 100 µM (inactive),> 100 µM (inactive),> 100 µM (inactive),85.3 µM (inactive),> 100 µM (inactive),> 100 µM (inactive),> 100 µM (inactive),> 100 µM (inactive)
Oc1ccc(/C=N/c2ccccc2O)cc1,> 100 µM (inactive),59.7 µM (inactive),–,22.5 µM (inactive),> 100 µM (inactive),12.7 µM (inactive),29.3 µM (inactive),> 100 µM (inactive),25.9 µM (inactive),54.2 µM (inactive),51.2 µM (inactive),39.4 µM (inactive),30.3 µM (inactive),> 100 µM (inactive),60.7 µM (inactive),45.3 µM (inactive),26.1 µM (inactive),21.9 µM (inactive),30.2 µM (inactive),48 µM (inactive)
COC(=O)C(=O)Nc1cc2c3c(c1)Oc1cccc4c1C3(C)c1c(cccc1O2)O4,39.7 µM (inactive),99.5 µM (inactive),> 65.9 µM (inactive),> 44.8 µM (inactive),> 69.5 µM (inactive),0.105 µM (active),> 86.3 µM (inactive),> 100 µM (inactive),98.6 µM (inactive),> 100 µM (inactive),39.2 µM (inactive),–,> 100 µM (inactive),> 55.2 µM (inactive),> 82 µM (inactive),> 59.2 µM (inactive),71.3 µM (inactive),> 87.7 µM (inactive),> 31.6 µM (inactive),> 82.6 µM (inactive)
CC(C)(C)O/N=C/c1cc(NC(=S)c2ccsc2)ccc1Cl,10.5 µM (inactive),13.7 µM (inactive),14.3 µM (inactive),2.75 µM (inactive),17.1 µM (inactive),17.2 µM (inactive),13.3 µM (inactive),23.6 µM (inactive),12.2 µM (inactive),17.5 µM (inactive),5.71 µM (inactive),13.1 µM (inactive),7.41 µM (inactive),17.7 µM (inactive),–,14.5 µM (inactive),16 µM (inactive),16 µM (inactive),14.9 µM (inactive),11.9 µM (inactive)
N#Cc1nc(COCCOCc2ccc(F)cc2)oc1N,> 100 µM (inactive),> 100 µM (inactive),–,> 100 µM (inactive),> 100 µM (inactive),> 100 µM (inactive),29 µM (inactive),> 100 µM (inactive),50.4 µM (inactive),> 100 µM (inactive),> 100 µM (inactive),> 100 µM (inactive),> 100 µM (inactive),> 100 µM (inactive),> 100 µM (inactive),> 100 µM (inactive),> 100 µM (inactive),> 100 µM (inactive),> 100 µM (inactive),> 100 µM (inactive)
COc1ccc(/C=C/c2cc(O)cc(OC3OC(CO)C(O)C(O)C3O)c2)cc1O (stereo not given),> 100 µM (inactive),> 100 µM (inactive),67.1 µM (inactive),78.7 µM (inactive),> 100 µM (inactive),> 100 µM (inactive),44 µM (inactive),> 100 µM (inactive),19.2 µM (inactive),69.2 µM (inactive),> 100 µM (inactive),> 100 µM (inactive),–,67.1 µM (inactive),14.8 µM (inactive),> 100 µM (inactive),> 100 µM (inactive),> 100 µM (inactive),> 100 µM (inactive),> 100 µM (inactive)
Cc1ccc2c(c1)C(=O)C1(C2)Cc2ccc(C)cc2C1=O,> 100 µM (inactive),> 100 µM (inactive),> 100 µM (inactive),> 100 µM (inactive),–,> 100 µM (inactive),> 100 µM (inactive),> 100 µM (inactive),> 100 µM (inactive),> 100 µM (inactive),> 100 µM (inactive),> 100 µM (inactive),> 100 µM (inactive),> 100 µM (inactive),> 100 µM (inactive),> 100 µM (inactive),> 100 µM (inactive),87.3 µM (inactive),–,> 100 µM (inactive)
O=S(=O)(O)c1cc(/N=N/c2c(O)ccc3ccccc23)cc2c(S(=O)(=O)O)cccc12,> 100 µM (inactive),> 100 µM (inactive),33.7 µM (inactive),> 100 µM (inactive),–,> 100 µM (inactive),> 100 µM (inactive),> 100 µM (inactive),> 100 µM (inactive),> 100 µM (inactive),> 100 µM (inactive),> 100 µM (inactive),–,> 100 µM (inactive),> 100 µM (inactive),> 100 µM (inactive),–,> 100 µM (inactive),> 100 µM (inactive),> 100 µM (inactive)
COc1cc2c(c(OC)c1OC)-c1ccc(SC)c(=O)cc1C(CC(=O)Oc1ccccc1F)C2 (stereo not given),0.0269 µM (active),> 7.5 µM (inactive),0.0575 µM (active),< 0.0075 µM (active),0.0193 µM (active),< 0.0075 µM (active),0.0108 µM (active),> 7.5 µM (inactive),0.127 µM (active),0.0226 µM (active),0.0531 µM (active),0.0328 µM (active),0.0219 µM (active),2.94 µM (inactive),0.0834 µM (active),0.0307 µM (active),< 0.0075 µM (active),0.0251 µM (active),0.0136 µM (active),–
C[n+]1c2ccccc2c(NCC(=O)O)c2ccccc21,> 100 µM (inactive),> 100 µM (inactive),> 100 µM (inactive),> 100 µM (inactive),> 100 µM (inactive),> 100 µM (inactive),> 100 µM (inactive),> 100 µM (inactive),> 100 µM (inactive),> 100 µM (inactive),> 100 µM (inactive),> 100 µM (inactive),> 100 µM (inactive),> 100 µM (inactive),> 100 µM (inactive),> 100 µM (inactive),–,> 100 µM (inactive),> 100 µM (inactive),87.5 µM (inactive)
c1ccc(-c2ccc(-c3ccc(C4=NCCN4)cc3)o2)cc1,1.76 µM (inactive),5.41 µM (inactive),–,0.94 µM (active),2.99 µM (inactive),1.79 µM (inactive),2.02 µM (inactive),2.38 µM (inactive),1.71 µM (inactive),2.64 µM (inactive),1.82 µM (inactive),3.59 µM (inactive),4.32 µM (inactive),2.69 µM (inactive),2.95 µM (inactive),1.35 µM (inactive),1.93 µM (inactive),1.87 µM (inactive),1.73 µM (inactive),3.37 µM (inactive)
COc1ccc(CCc2ccc3c(c2)OCO3)cc1,> 100 µM (inactive),> 100 µM (inactive),> 100 µM (inactive),36.6 µM (inactive),> 100 µM (inactive),21.4 µM (inactive),51.3 µM (inactive),> 100 µM (inactive),–,68.9 µM (inactive),34.7 µM (inactive),> 100 µM (inactive),> 100 µM (inactive),> 100 µM (inactive),> 100 µM (inactive),79.4 µM (inactive),73.6 µM (inactive),31.5 µM (inactive),> 100 µM (inactive),66.8 µM (inactive)
NC(=S)NNC(=O)CCC(=O)Nc1ccc(Cl)cc1Cl,> 100 µM (inactive),> 100 µM (inactive),> 100 µM (inactive),43.5 µM (inactive),> 100 µM (inactive),> 100 µM (inactive),> 100 µM (inactive),> 100 µM (inactive),> 100 µM (inactive),> 100 µM (inactive),55.3 µM (inactive),> 100 µM (inactive),> 100 µM (inactive),> 100 µM (inactive),> 100 µM (inactive),> 100 µM (inactive),66.8 µM (inactive),42.9 µM (inactive),> 100 µM (inactive),–
O=[N+]([O-])C1C2C=CC(C2)[C@H]1c1ccc(Cl)cc1Cl (stereo not given in full),55 µM (inactive),69.7 µM (inactive),42.3 µM (inactive),24.9 µM (inactive),67 µM (inactive),19.3 µM (inactive),> 10 µM (inactive),11.4 µM (inactive),26.4 µM (inactive),35.2 µM (inactive),26.7 µM (inactive),57.1 µM (inactive),36.7 µM (inactive),75.2 µM (inactive),33 µM (inactive),75.5 µM (inactive),29.7 µM (inactive),44.9 µM (inactive),–,–
